Results published in PubChem BioAssay AID1918938 (Molecular Pharmacology Branch, DTP, NCI, 2023).

Test system: 556581-035-R-J1-PDC complex spheroid viability
Test: Anticancer human tumor 556581-035-R-J1-PDC patient-derived ovarian carcinoma cell line growth inhibition
Settings: for IC50: curve of first compound; for viability, T/C: stronger effect = lower value
Outline: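 Multicellular complex spheroids of tumor cells with human endothelial cells (HUVEC) and mesenchymal stem cells; the LSD1 inhibitor iadademstat was combined with standard-of-care or investigational agents. Top concentration at or near clinical Cmax, half-log dilutions; final DMSO ≤0.25%.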

[1] = second compound 0.1 µM, first compound 0.0316 µM
[2] = second compound 0.1 µM, first compound 0.1 µM
[3] = second compound 0.1 µM, first compound 0.316 µM
[4] = second compound 0.1 µM, first compound 1 µM
[5] = second compound 0.1 µM, first compound 3.16 µM
[6] = second compound 0.1 µM, first compound 10 µM
[7] = second compound 0.316 µM, first compound 0.0316 µM
[8] = second compound 0.316 µM, first compound 0.1 µM
[9] = second compound 0.316 µM, first compound 0.316 µM
[10] = second compound 0.316 µM, first compound 1 µM
[11] = second compound 0.316 µM, first compound 3.16 µM
[12] = second compound 0.316 µM, first compound 10 µM
[13] = second compound 1 µM, first compound 0.0316 µM
[14] = second compound 1 µM, first compound 0.1 µM
[15] = second compound 1 µM, first compound 0.316 µM
[16] = second compound 1 µM, first compound 1 µM
[17] = second compound 1 µM, first compound 3.16 µM
[18] = second compound 1 µM, first compound 10 µM
[19] = second compound 3.16 µM, first compound 0.0316 µM
[20] = second compound 3.16 µM, first compound 0.1 µM
[21] = second compound 3.16 µM, first compound 0.316 µM
[22] = second compound 3.16 µM, first compound 1 µM
[23] = second compound 3.16 µM, first compound 3.16 µM
[24] = second compound 3.16 µM, first compound 10 µM
[25] = second compound 10 µM, first compound 0.0316 µM
[26] = second compound 10 µM, first compound 0.1 µM
[27] = second compound 10 µM, first compound 0.316 µM
[28] = second compound 10 µM, first compound 1 µM
[29] = second compound 10 µM, first compound 3.16 µM
[30] = second compound 10 µM, first compound 10 µM
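Note: spheroids exposed to agents for seven days.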
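Throughout, for viability, T/C: 100% = DMSO vehicle control wells.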

| Compound | IC50 (second compound 0.1 µM) | IC50 (second compound 0.316 µM) | IC50 (second compound 1 µM) | IC50 (second compound 3.16 µM) | IC50 (second compound 10 µM) | viability, T/C [1] | viability, T/C [2] | viability, T/C [3] | viability, T/C [4] | viability, T/C [5] | viability, T/C [6] | viability, T/C [7] | viability, T/C [8] | viability, T/C [9] | viability, T/C [10] | viability, T/C [11] | viability, T/C [12] | viability, T/C [13] | viability, T/C [14] | viability, T/C [15] | other results |
| --- | --- | --- | --- | --- | --- | --- | --- | --- | --- | --- | --- | --- | --- | --- | --- | --- | --- | --- | --- | --- | --- |
| CC1(C)CCC(CN2CCN(c3ccc(C(=O)NS(=O)(=O)c4ccc(NCC5CCOCC5)c([N+](=O)[O-])c4)c(Oc4cnc5[nH]ccc5c4)c3)CC2)=C(c2ccc(Cl)cc2)C1 + NC1CC1c1ccc(-c2cccc(O)c2)cc1 | 4.1 µM | 3.94 µM | 4.04 µM | 3.82 µM | 3.23 µM | 89.8% | 85.4% | 73.2% | 76.5% | 65.5% | 3.69% | 83.2% | 82% | 73.2% | 75.4% | 61.6% | 4.26% | 82.6% | 87% | 81.9% | viability, T/C [16]: 65.3%; viability, T/C [17]: 67.4%; viability, T/C [18]: 5.26%; viability, T/C [19]: 83.5%; viability, T/C [20]: 90.3%; viability, T/C [21]: 72.2%; viability, T/C [22]: 73.9%; viability, T/C [23]: 61.3%; viability, T/C [24]: 4.73%; viability, T/C [25]: 85.4%; viability, T/C [26]: 81.7%; viability, T/C [27]: 75.6%; viability, T/C [28]: 65.4%; viability, T/C [29]: 55.2%; viability, T/C [30]: 3.86% |
| CC1COCCN1c1cc(C2(S(C)(=N)=O)CC2)nc(-c2ccnc3[nH]ccc23)n1 (stereo not given) + NC1CC1c1ccc(-c2cccc(O)c2)cc1 | 5.95 µM | 5.94 µM | 5.37 µM | > 10 µM | > 10 µM | 101% | 98.6% | 78.9% | 72.3% | 52.5% | 46.7% | 95.3% | 85.5% | 77.8% | 70.7% | 52.6% | 46.3% | 87.9% | 88.9% | 84.3% | viability, T/C [16]: 77.4%; viability, T/C [17]: 53.7%; viability, T/C [18]: 45.5%; viability, T/C [19]: 87.9%; viability, T/C [20]: 96%; viability, T/C [21]: 85.5%; viability, T/C [22]: 70.5%; viability, T/C [23]: 54.2%; viability, T/C [24]: 50.9%; viability, T/C [25]: 88.4%; viability, T/C [26]: 84.8%; viability, T/C [27]: 78.3%; viability, T/C [28]: 69.7%; viability, T/C [29]: 51.3%; viability, T/C [30]: 54.7% |
